Experimental findings from ChEMBL document CHEMBL5247604, “Discovery of novel hybrids containing clioquinol-1-benzyl-1,2,3,6-tetrahydropyridine as multi-target-directed ligands (MTDLs) against Alzheimer's disease” (Eur J Med Chem, 2022) are described below.

One series concerns the target Acetylcholinesterase (Electrophorus electricus, UniProt O42275). The series is described as follows: Inhibition of electric eel AChE using acetylthiocholine iodide as substrate preincubated for 15 mins followed by substrate addition by Ellman's method.
Series [1] in a line: Metal chelating activity assessed as Zn2+-compound complex formation by measuring red shift in presence of ZnCl2 at 40 uM incubated for 30 mins by UV-Visible spectrophotometry.
Series [2] is described as follows: Metal chelating activity assessed as Al3+-compound complex formation by measuring blue shift in presence of AlCl3 at 40 uM incubated for 30 mins by UV-Visible spectrophotometry.
The nature of series [3]: Metal chelating activity assessed as Fe3+-compound complex formation by measuring red shift in presence of FeCl3 at 40 uM incubated for 30 mins by UV-Visible spectrophotometry.
Series [4] is described as follows: Metal chelating activity assessed as Cu2+-compound complex formation by measuring red shift in presence of CuSO4 at 40 uM incubated for 30 mins by UV-Visible spectrophotometry.
Series [5] is described as follows: Metal chelating activity assessed as Fe2+-compound complex formation by measuring red shift in presence of FeSO4 at 40 uM incubated for 30 mins by UV-Visible spectrophotometry.
The target in series [6] is T1, Amyloid-beta precursor protein (Homo sapiens, UniProt P05067). Put plainly: Inhibition of Cu2+ induced amyloid beta (1 to 42 ) (unknown origin) aggregation assessed as reduction in fibrils incubated for 24 hr by TEM analysis.
T1 sequence (P05067 whole entry): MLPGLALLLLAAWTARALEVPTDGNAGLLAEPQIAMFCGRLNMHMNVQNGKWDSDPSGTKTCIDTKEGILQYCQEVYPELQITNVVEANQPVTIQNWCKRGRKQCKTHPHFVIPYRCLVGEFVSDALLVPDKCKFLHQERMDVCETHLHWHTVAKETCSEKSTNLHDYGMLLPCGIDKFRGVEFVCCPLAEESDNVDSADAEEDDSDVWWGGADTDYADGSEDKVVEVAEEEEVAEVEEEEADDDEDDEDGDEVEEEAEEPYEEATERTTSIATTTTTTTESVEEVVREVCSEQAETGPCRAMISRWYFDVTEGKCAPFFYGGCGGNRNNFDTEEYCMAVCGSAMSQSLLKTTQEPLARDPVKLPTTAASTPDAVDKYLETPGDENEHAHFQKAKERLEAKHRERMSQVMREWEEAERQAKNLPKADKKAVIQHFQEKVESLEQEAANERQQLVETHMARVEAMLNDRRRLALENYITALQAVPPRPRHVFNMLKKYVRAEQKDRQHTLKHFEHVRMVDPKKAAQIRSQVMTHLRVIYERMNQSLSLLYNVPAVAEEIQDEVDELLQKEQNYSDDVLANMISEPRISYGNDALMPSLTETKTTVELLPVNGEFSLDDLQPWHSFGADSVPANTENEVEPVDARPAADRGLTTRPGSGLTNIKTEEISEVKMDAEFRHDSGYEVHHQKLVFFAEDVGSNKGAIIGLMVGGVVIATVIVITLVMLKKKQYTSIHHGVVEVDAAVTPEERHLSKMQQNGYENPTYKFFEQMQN
For series [7], the target named is T1, Amyloid-beta precursor protein. Put plainly: Inhibition of Cu2+ induced amyloid beta (1 to 42 ) (unknown origin) aggregation incubated for 24 hr by Thioflavin T based fluorometric assay.
For series [8] the target is unchanged. Put plainly: Inhibition of amyloid beta (1 to 42 ) (unknown origin) self aggregation incubated for 24 hr by Thioflavin T based fluorometric assay.
Series [9] deals with SH-SY5Y. The series is described as follows: Antioxidant activity against okadaic acid-induced ROS generation in human SH-SY5Y cells assessed as reduction in DCF fluorescence intensity at 1 to 10 uM pretreated for 24 hrs followed by okadaic acid addition for 24 hrs by DCFH-DA dye based fluorescence analysis. In kind it is functional, cell-based. The settings on record: dose 1-10 µM.

The nature of the next series: in vivo. The settings on record: ICR, mouse, po.
Series [10] has as its system Mus musculus. Put plainly: Antialzheimer activity in human oligo-merized amyloid beta (1 to 42 residues)-induced cognitive impairment C57BL/6 mouse model assessed as increase duration in novel arm at 5 mg/kg,ip qd for 10 days by Y-maze test relative to control. In kind it is functional, organism-based. As to conditions: time 10.0 day.
For series [11], the system named is SH-SY5Y. Put plainly: Antialzheimer activity in human SH-SY5Y cells assessed as inhibition of GA-induced tau hyperphosphorylation at Ser396 residue incubated for 24 hrs by ELISA. The class given is functional, cell-based.
Series [12] relates to Mus musculus. The series is described as follows: Antialzheimer activity in human oligo-merized amyloid beta (1 to 42 residues)-induced cognitive impairment C57BL/6 mouse model assessed as decrease TNF-alpha level in cortex at 5 mg/kg,ip qd for 10 days by ELISA. The class given is functional, organism-based. As to conditions: time 10.0 day.
Series [13] relates to SH-SY5Y. Put plainly: Antialzheimer activity in human SH-SY5Y cells assessed as inhibition of GA-induced tau hyperphosphorylation at Ser199 residue at 0.1 to 3 uM incubated for 24 hrs by ELISA. In kind it is functional, cell-based. As to conditions: dose 0.1-3 µM.
The test system of series [14] is Mus musculus. Put plainly: Antialzheimer activity in human oligo-merized amyloid beta (1 to 42 residues)-induced cognitive impairment C57BL/6 mouse model assessed as increase in percentage of time spent in the target quadrant at 5 mg/kg,ip qd for 10 days by Morris water maze test relative to control. In kind it is functional, organism-based. The settings on record: time 10.0 day.

For series [15], the system named is SH-SY5Y. Put plainly: Antialzheimer activity in human SH-SY5Y cells assessed as inhibition of GA-induced tau hyperphosphorylation at Ser199 residue incubated for 24 hrs by ELISA. The class given is functional, cell-based.
In series [16] the test system is Mus musculus. The series is described as follows: Antialzheimer activity in human oligo-merized amyloid beta (1 to 42 residues)-induced cognitive impairment C57BL/6 mouse model assessed as decrease in escape latency at 5 mg/kg,ip qd for 10 days by Morris water maze test relative to control. In kind it is functional, organism-based. As to conditions: time 10.0 day.

In series [17] the test system is SH-SY5Y. The series is described as follows: Antialzheimer activity in human SH-SY5Y cells assessed as inhibition of GA-induced tau hyperphosphorylation at Ser396 residue at 0.1 to 3 uM incubated for 24 hrs by ELISA. As to conditions: dose 0.1-3 µM. In kind it is functional, cell-based.
Series [18] concerns SH-SY5Y. The series is described as follows: Antioxidant activity against okadaic acid-induced ROS generation in human SH-SY5Y cells assessed as reduction in DCF fluorescence intensity pretreated for 24 hrs followed by okadaic acid addition for 24 hrs by DCFH-DA dye based fluorescence analysis. In kind it is functional, cell-based.
Series [19] relates to Mus musculus. The series is described as follows: Antialzheimer activity in human oligo-merized amyloid beta (1 to 42 residues)-induced cognitive impairment C57BL/6 mouse model assessed as decrease IL-1beta level in cortex at 5 mg/kg,ip qd for 10 days by ELISA. The class given is functional, organism-based. As to conditions: time 10.0 day.
For series [20], the system named is SH-SY5Y. The series is described as follows: Neuroprotective activity in human SH-SY5Y cells assessed as inhibition of okadaic acid-induced mitochondrial membrane potential by measuring increase in red-to-green fluorescence intensity ratio pretreated for 24 hrs followed by okadaic acid addition for 24 hrs by JC-1 dye based fluorescence analysis. The class given is functional, cell-based.

The source made the active and inactive calls. The rule behind the calls is not given here.

Chain of Acetylcholinesterase (O42275 whole entry): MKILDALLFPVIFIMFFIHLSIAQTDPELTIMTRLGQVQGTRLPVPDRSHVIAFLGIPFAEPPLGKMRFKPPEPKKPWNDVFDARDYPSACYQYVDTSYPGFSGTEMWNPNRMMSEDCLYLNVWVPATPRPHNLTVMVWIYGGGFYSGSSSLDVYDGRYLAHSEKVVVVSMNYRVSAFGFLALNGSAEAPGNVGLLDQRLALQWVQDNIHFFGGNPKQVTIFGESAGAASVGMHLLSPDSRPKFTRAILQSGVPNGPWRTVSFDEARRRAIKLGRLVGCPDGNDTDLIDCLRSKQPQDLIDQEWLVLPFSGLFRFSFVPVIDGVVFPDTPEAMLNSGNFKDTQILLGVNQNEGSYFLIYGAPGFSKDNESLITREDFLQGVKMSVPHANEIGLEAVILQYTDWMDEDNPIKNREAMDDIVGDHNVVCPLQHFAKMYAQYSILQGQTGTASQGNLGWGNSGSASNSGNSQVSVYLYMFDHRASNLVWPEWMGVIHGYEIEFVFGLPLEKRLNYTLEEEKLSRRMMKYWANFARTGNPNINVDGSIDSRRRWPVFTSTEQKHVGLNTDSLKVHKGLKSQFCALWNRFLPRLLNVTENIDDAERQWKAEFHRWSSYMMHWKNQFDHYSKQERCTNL
Description for in vivo: Acute toxicity in ICR mouse assessed as lethality at 21.30 to 52 mg/kg, po and measured upto 14 days

On Acetylcholinesterase, `Oc1c(Cl)cc(Cl)c2ccc(/C=C/C3=CCN(Cc4ccccc4Cl)CC3)nc12` had an IC50 of 0.41 µM.

As to `Oc1cccc2ccc(/C=C/C3=CCN(Cc4ccc(Cl)cc4)CC3)nc12`, half-maximal inhibition against Acetylcholinesterase (IC50) was put at 3.05 µM.

`Cc1ccccc1CN1CC=C(/C=C/c2ccc3cccc(O)c3n2)CC1` gave an IC50 against Acetylcholinesterase of 0.4 µM.

On Acetylcholinesterase, `Oc1cccc2ccc(/C=C/C3=CCN(Cc4cccc(Br)c4)CC3)nc12` yielded an IC50 of 1.53 µM.

On to `Oc1cccc2ccc(/C=C/C3=CCN(Cc4cccc(Cl)c4)CC3)nc12`, for which half-maximal inhibition at Acetylcholinesterase (IC50) required 0.75 µM.

For the compound `Cc1ccccc1CN1CC=C(/C=C/c2ccc3c(Cl)cc(Cl)c(O)c3n2)CC1`, it took 0.56 µM to reach half-maximal inhibition against Acetylcholinesterase (IC50).

On to `Cc1cccc(CN2CC=C(/C=C/c3ccc4c(Cl)cc(Cl)c(O)c4n3)CC2)c1`, for which the result in [1] and in series [3] was inactive. The result in series [2], in [4] and in series [5] was Active. Also, at Acetylcholinesterase, it took 0.25 µM to reach half-maximal inhibition (IC50).

In turn, `Oc1c(Cl)cc(Cl)c2ccc(/C=C/C3=CCN(Cc4ccccc4C(F)(F)F)CC3)nc12` returned an IC50 on Acetylcholinesterase of 0.34 µM.

`Oc1c(Cl)cc(Cl)c2ccc(/C=C/C3=CCN(Cc4ccc(C(F)(F)F)cc4)CC3)nc12` showed an IC50 against Acetylcholinesterase of 0.28 µM.

For the compound `Oc1cccc2ccc(/C=C/C3=CCN(Cc4ccccc4)CC3)nc12`, 1.11 µM corresponded to half-maximal inhibition against Acetylcholinesterase (IC50).

`Oc1c(I)cc(Cl)c2cccnc12`: the inhibition entry in series [6] and in series [7] was “Active” each time. Moreover, the inhibition entry in series [8] was “inactive”.

At Acetylcholinesterase, `Oc1cccc2ccc(/C=C/C3=CCN(Cc4ccccc4F)CC3)nc12` returned an IC50 of 0.57 µM.

The compound `Cc1ccc(CN2CC=C(/C=C/c3ccc4c(Cl)cc(Cl)c(O)c4n3)CC2)cc1` returned an IC50 on Acetylcholinesterase of 0.54 µM.

At Acetylcholinesterase, `Oc1c(Cl)cc(Cl)c2ccc(/C=C/C3=CCN(Cc4ccc(F)cc4)CC3)nc12` yielded an IC50 of 0.27 µM.

On to `COc1cc2c(cc1OC)C(=O)C(CC1CCN(Cc3ccccc3)CC1)C2` (configuration not stated) [DONEPEZIL], for which the outcome in the series with SH-SY5Y [9], in the series on Mus musculus [10], with Mus musculus [12], in the series with SH-SY5Y [13], with Mus musculus [14] and with Mus musculus [16] was Active. In addition, the result in the series with SH-SY5Y [17] and with Mus musculus [19] was Active. The compound further showed an LD50 at 336 h in “in vivo” of 28.1 mg/kg. The IC50 in the series on SH-SY5Y [11] is 155 µM; with SH-SY5Y [15], 35 µM; in the series on SH-SY5Y [18], 202 µM; with SH-SY5Y [20], 326 µM.

`Oc1c(Cl)cc(Cl)c2ccc(/C=C/C3=CCN(Cc4cccc(C(F)(F)F)c4)CC3)nc12` came in with an IC50 on Acetylcholinesterase of 0.7 µM.

At Acetylcholinesterase, `Oc1c(Cl)cc(Cl)c2ccc(/C=C/C3=CCN(Cc4ccccc4)CC3)nc12` displayed an IC50 of 2.31 µM.

With `Oc1cccc2ccc(/C=C/C3=CCN(Cc4ccccc4Cl)CC3)nc12`, the IC50 against Acetylcholinesterase is 1.29 µM.

Take `Oc1c(Cl)cc(Cl)c2ccc(/C=C/C3=CCN(Cc4cccc(Cl)c4)CC3)nc12`: the IC50 at Acetylcholinesterase was found to be 0.33 µM.

The compound `Oc1c(Cl)cc(Cl)c2ccc(/C=C/C3=CCN(Cc4cccc(F)c4)CC3)nc12` came in with an IC50 at Acetylcholinesterase of 0.52 µM.

Compound `Oc1c(Cl)cc(Cl)c2ccc(/C=C/C3=CCN(Cc4ccccc4Br)CC3)nc12` gave an IC50 against Acetylcholinesterase of 0.54 µM.

In turn, `Oc1cccc2ccc(/C=C/C3=CCN(Cc4ccc(F)cc4)CC3)nc12` yielded an IC50 on Acetylcholinesterase of 1.66 µM.

In turn, `Cc1ccc(CN2CC=C(/C=C/c3ccc4cccc(O)c4n3)CC2)cc1` showed an IC50 against Acetylcholinesterase of 0.26 µM.

With `Oc1cccc2ccc(/C=C/C3=CCN(Cc4ccccc4Br)CC3)nc12`, the IC50 on Acetylcholinesterase is 0.49 µM.

As to `Oc1c(Cl)cc(Cl)c2ccc(/C=C/C3=CCN(Cc4ccccc4F)CC3)nc12`, half-maximal inhibition at Acetylcholinesterase (IC50) was put at 0.29 µM.

On to `Oc1cccc2ccc(/C=C/C3=CCN(Cc4ccc(C(F)(F)F)cc4)CC3)nc12`, for which the IC50 against Acetylcholinesterase was determined as 0.32 µM.

At Acetylcholinesterase, `Oc1c(Cl)cc(Cl)c2ccc(/C=C/C3=CCN(Cc4cccc(Br)c4)CC3)nc12` registered an IC50 of 0.32 µM.

For `Oc1cccc2ccc(/C=C/C3=CCN(Cc4cccc(F)c4)CC3)nc12`, at Acetylcholinesterase, the IC50 came to 0.72 µM.

The compound `Oc1cccc2ccc(/C=C/C3=CCN(Cc4ccc(Br)cc4)CC3)nc12` registered an IC50 at Acetylcholinesterase of 0.26 µM.

The compound `Oc1c(Cl)cc(Cl)c2ccc(/C=C/C3=CCN(Cc4ccc(Br)cc4)CC3)nc12` registered a half-inhibitory concentration (IC50) against Acetylcholinesterase of 0.64 µM.

As to `Cc1cccc(CN2CC=C(/C=C/c3ccc4cccc(O)c4n3)CC2)c1`, the IC50 on Acetylcholinesterase is 0.43 µM.

Turning to `Oc1c(Cl)cc(Cl)c2ccc(/C=C/C3=CCN(Cc4ccc(Cl)cc4)CC3)nc12`, 0.62 µM corresponded to half-maximal inhibition against Acetylcholinesterase (IC50).

For `Oc1cccc2ccc(/C=C/C3=CCN(Cc4cccc(C(F)(F)F)c4)CC3)nc12`, on Acetylcholinesterase, half-maximal inhibition (IC50) required 0.55 µM.
